Results from PubChem BioAssay AID330 (DTP/NCI, 2004).
Where “and” joins values, the source holds several entries; their conditions need not be identical. Equal values may be shown once. Toxic doses and inconclusive results are not listed.

System: P388 leukemia ip, CD2F1 mice, survival T/C
Test: NCI In Vivo Anticancer Drug Screen. Data for tumor model P388 Leukemia (intraperitoneal) in CD2F1 (CDF1) mice
Details: endpoint: median survival time, higher = longer survival
Method: The antitumor activity of compounds was measured in mice bearing transplantable tumors. Survival or tumor size were measured and the results are expressed as the measurement made in the treated group (T) divided by the measurement made in the vehicle treated control group (C). The tumor model used in this assay is P388 Leukemia (intraperitoneal) in CD2F1 (CDF1) mice

[1] = dose: 50.0 mg/kg/injection, schedule: Q01DX009 (ip), vehicle: saline with Tween-80
[2] = dose: 100.0 mg/kg/injection, schedule: Q01DX009 (ip), vehicle: saline with Tween-80
[3] = dose: 200.0 mg/kg/injection, schedule: Q01DX009 (ip), vehicle: saline with Tween-80
[4] = dose: 25.0 mg/kg/injection, schedule: Q01DX009 (ip), vehicle: saline
[5] = dose: 50.0 mg/kg/injection, schedule: Q01DX009 (ip), vehicle: saline
[6] = dose: 100.0 mg/kg/injection, schedule: Q01DX009 (ip), vehicle: saline
[7] = dose: 200.0 mg/kg/injection, schedule: Q01DX009 (ip), vehicle: saline
[8] = dose: 50.0 mg/kg/injection, schedule: Q01DX005 (ip), vehicle: Klucel (hydroxypropylcellulose) (HPC)
[9] = dose: 100.0 mg/kg/injection, schedule: Q01DX005 (ip), vehicle: Klucel (hydroxypropylcellulose) (HPC)
[10] = dose: 25.0 mg/kg/injection, schedule: Q01DX009 (ip), vehicle: Klucel (hydroxypropylcellulose) (HPC)
[11] = dose: 50.0 mg/kg/injection, schedule: Q01DX009 (ip), vehicle: Klucel (hydroxypropylcellulose) (HPC)
[12] = dose: 100.0 mg/kg/injection, schedule: Q01DX009 (ip), vehicle: Klucel (hydroxypropylcellulose) (HPC)
[13] = dose: 200.0 mg/kg/injection, schedule: Q01DX009 (ip), vehicle: Klucel (hydroxypropylcellulose) (HPC)
[14] = dose: 50.0 mg/kg/injection, schedule: Q01DX005 (ip), vehicle: saline with Tween-80
[15] = dose: 60.0 mg/kg/injection, schedule: Q01DX005 (ip), vehicle: saline with Tween-80
[16] = dose: 120.0 mg/kg/injection, schedule: Q01DX005 (ip), vehicle: saline with Tween-80
[17] = dose: 240.0 mg/kg/injection, schedule: Q01DX005 (ip), vehicle: saline with Tween-80
[18] = dose: 200.0 mg/kg/injection, schedule: Q01DX005 (ip), vehicle: Klucel (hydroxypropylcellulose) (HPC)
[19] = dose: 50.0 mg/kg/injection, schedule: Q01DX005 (ip), vehicle: saline

`CCOC(=O)c1cnc2cc3c(c[nH]n3C(c3ccccc3)(c3ccccc3)c3ccccc3)cc2c1=O` was tested, and the T/C [1] was 94 % of control, the T/C [2] was 96 % of control and the T/C [3] was 97 % of control.

`NCCc1ccc(O)c(O)c1` was tested, and the T/C (dose: 1.5 mg/kg/injection, schedule: Q01DX009 (ip), vehicle: saline) was 100 % of control and 96 % of control, the T/C (dose: 15.0 mg/kg/injection, schedule: Q01DX009 (ip), vehicle: saline) was 99 % of control and 100 % of control and the T/C [4] was 108 % of control. For the same molecule, the T/C (dose: 50.0 mg/kg/injection, schedule: Q01DX009 (ip), vehicle: other) was 101 % of control, the T/C [5] was 107 % of control and 108 % of control and the T/C (dose: 100.0 mg/kg/injection, schedule: Q01DX009 (ip), vehicle: other) was 83 % of control. For the same molecule, the T/C [6] was 101 % of control and 108 % of control, the T/C (dose: 150.0 mg/kg/injection, schedule: Q01DX009 (ip), vehicle: saline) was 123 % of control and the T/C (dose: 200.0 mg/kg/injection, schedule: Q01DX009 (ip), vehicle: other) was 90 % of control. For the same molecule, the T/C [7] was 112 % of control and 115 % of control, the T/C (dose: 300.0 mg/kg/injection, schedule: Q01DX009 (ip), vehicle: saline) was 92 % of control and the T/C (dose: 400.0 mg/kg/injection, schedule: Q01DX009 (ip), vehicle: other) was 83 % of control. For the same molecule, the T/C (dose: 400.0 mg/kg/injection, schedule: Q01DX009 (ip), vehicle: saline) was 99 % of control and 121 % of control and the T/C (dose: 600.0 mg/kg/injection, schedule: Q01DX009 (ip), vehicle: saline) was 153 % of control.

`COc1cc(C(O)(CCN2CCOCC2)c2ccc3c(c2)OCO3)cc(OC)c1OC` (stereo unspecified) was tested, and the T/C [8] was 91 % of control and the T/C [9] was 87 % of control.

For `S=C(Nc1ccccc1)SCc1ccc(Cl)cc1`, the T/C [5] was 104 % of control, the T/C [6] was 103 % of control and the T/C [7] was 108 % of control.

For `CN(C)/C=C1\CCCCC1=C(C#N)C#N`, the T/C (dose: 100.0 mg/kg/injection, schedule: Q04DX003 (ip), vehicle: saline) was 100 % of control, the T/C (dose: 200.0 mg/kg/injection, schedule: Q04DX003 (ip), vehicle: saline) was 93 % of control and the T/C (dose: 400.0 mg/kg/injection, schedule: Q04DX003 (ip), vehicle: saline) was 95 % of control.

For `NNS(=O)(=O)CCC(N)C(=O)O` (stereo unspecified), the T/C (dose: 12.5 mg/kg/injection, schedule: Q01DX009 (ip), vehicle: water) was 100 % of control, the T/C (dose: 25.0 mg/kg/injection, schedule: Q01DX009 (ip), vehicle: water) was 107 % of control and the T/C (dose: 50.0 mg/kg/injection, schedule: Q01DX009 (ip), vehicle: water) was 107 % of control. For the same molecule, the T/C (dose: 100.0 mg/kg/injection, schedule: Q01DX009 (ip), vehicle: water) was 98 % of control.

`CN(C)c1cc(=O)c2ccc3ccccc3c2o1` was tested, and the T/C [1] was 96 % of control, the T/C [2] was 96 % of control and the T/C [3] was 93 % of control.

In the case of `C[N+]1(C)CC[N+](C)(C)CC1`, the T/C [10] is reported as 103 % of control, the T/C [11] is reported as 103 % of control and the T/C [12] is reported as 100 % of control. For the same molecule, the T/C [13] was 110 % of control.

In the case of `CC[Si](CC)(CC)OC(C#N)c1ccc2c(c1)OCO2` (stereo unspecified), the T/C [14] is reported as 104 % of control, the T/C (dose: 100.0 mg/kg/injection, schedule: Q01DX005 (ip), vehicle: saline with Tween-80) is reported as 104 % of control and the T/C (dose: 200.0 mg/kg/injection, schedule: Q01DX005 (ip), vehicle: saline with Tween-80) is reported as 100 % of control.

`C=CCCCCCCCCCCCCCC1=NCC[N+]1(CCO)CC(O)COc1cc(Cl)c(Cl)c(Cl)c1` (stereo unspecified) was tested, and the T/C (dose: 12.5 mg/kg/injection, schedule: Q01DX009 (ip), vehicle: saline) was 102 % of control, the T/C [4] was 106 % of control and the T/C [5] was 105 % of control and 108 % of control. The T/C [6] was 90 % of control.

For `CC12C=CC(C)(C3C(=O)NC(=O)C31)C1C3C(=O)NC(=O)C3C12` (stereo unspecified), the T/C [10] was 106 % of control, the T/C [11] was 109 % of control and the T/C [12] was 106 % of control. For the same molecule, the T/C [13] was 109 % of control.

In the case of `COC(=O)c1c2csc3ccccc3n-2c(=O)c1C`, the T/C [15] is reported as 102 % of control, the T/C [16] is reported as 101 % of control and the T/C [17] is reported as 95 % of control.

In the case of `OCC1OC(n2cnc3c(NO)nc(NO)nc32)C(O)C1O` (stereo unspecified), the T/C (dose: 2.25 mg/kg/injection, schedule: Q01DX009 (ip), vehicle: saline) is reported as 100 % of control, the T/C (dose: 4.5 mg/kg/injection, schedule: Q01DX009 (ip), vehicle: saline) is reported as 114 % of control and the T/C (dose: 14.3 mg/kg/injection, schedule: Q01DX009 (ip), vehicle: saline) is reported as 107 % of control. For the same molecule, the T/C (dose: 18.0 mg/kg/injection, schedule: Q01DX009 (ip), vehicle: saline) was 114 % of control and the T/C (dose: 54.0 mg/kg/injection, schedule: Q01DX009 (ip), vehicle: saline) was 184 % of control.

With `CCCC(Nc1ncccn1)Nc1ncccn1` the T/C [8] was 100 % of control, the T/C [9] was 100 % of control and the T/C [18] was 99 % of control.

`CCN(CC)CC(C)(O)CNc1cc(OC)cc2cccnc12` (stereo unspecified) was tested, and the T/C (dose: 12.5 mg/kg/injection, schedule: Q01DX005 (ip), vehicle: saline) was 97 % of control, the T/C (dose: 25.0 mg/kg/injection, schedule: Q01DX005 (ip), vehicle: saline) was 101 % of control and the T/C [19] was 93 % of control and 94 % of control.

With `O=c1[nH]c2c([N+](=O)[O-])cccc2nc1/C=C(\O)c1cccc([N+](=O)[O-])c1` the T/C (dose: 7.5 mg/kg/injection, schedule: Q01DX005 (ip), vehicle: Klucel + Tween-80) was 94 % of control, the T/C (dose: 15.0 mg/kg/injection, schedule: Q01DX005 (ip), vehicle: Klucel + Tween-80) was 94 % of control and the T/C (dose: 30.0 mg/kg/injection, schedule: Q01DX005 (ip), vehicle: Klucel + Tween-80) was 88 % of control.

In the case of `CC(Br)CCc1ccccc1Br` (stereo unspecified), the T/C [8] is reported as 101 % of control, the T/C [9] is reported as 93 % of control and the T/C [18] is reported as 97 % of control.

With `CCC12Nc3ccccc3C(CC)(C1=O)C(c1ccccc1)=C2c1ccccc1` (stereo unspecified) the T/C [11] was 115 % of control, the T/C [12] was 106 % of control and the T/C [13] was 115 % of control.

For `Cc1nnc2sc(-c3cccc(Cl)c3)nn2c1=O`, the T/C (dose: 50.0 mg/kg/injection, schedule: Q04DX002 (ip), vehicle: Klucel (hydroxypropylcellulose) (HPC)) was 102 % of control, the T/C (dose: 100.0 mg/kg/injection, schedule: Q04DX002 (ip), vehicle: Klucel (hydroxypropylcellulose) (HPC)) was 100 % of control and the T/C (dose: 200.0 mg/kg/injection, schedule: Q04DX002 (ip), vehicle: Klucel (hydroxypropylcellulose) (HPC)) was 100 % of control.

In the case of `S=c1o[nH]c(-c2ccccc2)c1C=Nc1ccccc1`, the T/C [15] is reported as 102 % of control, the T/C [16] is reported as 93 % of control and the T/C [17] is reported as 94 % of control.

With `O=C([O-])CCNC1OC(CO)C(O)C(O)C1O.O=C([O-])CCNC1OC(CO)C(O)C(O)C1O.[Pd+2]` (stereo unspecified) the T/C [19] was 99 % of control, the T/C (dose: 100.0 mg/kg/injection, schedule: Q01DX005 (ip), vehicle: saline) was 102 % of control and the T/C (dose: 200.0 mg/kg/injection, schedule: Q01DX005 (ip), vehicle: saline) was 99 % of control.

For `C=CCN1CCCSC1=S`, the T/C [11] was 106 % of control and the T/C [12] was 108 % of control.

With `COc1ccc(C(=O)N2C3C4C=CC(C4)C3N2C(=O)c2ccc(OC)cc2)cc1` (stereo unspecified) the T/C (dose: 25.0 mg/kg/injection, schedule: Q01DX005 (ip), vehicle: Klucel (hydroxypropylcellulose) (HPC)) was 99 % of control, the T/C [8] was 92 % of control and 93 % of control and the T/C [9] was 95 % of control. The T/C [18] was 88 % of control.

`COc1ccc2[nH]c3c(c2c1)C(c1ccccc1)c1ccccc1-3` (stereo unspecified) was tested, and the T/C (dose: 12.5 mg/kg/injection, schedule: Q01DX005 (ip), vehicle: saline with Tween-80) was 100 % of control, the T/C (dose: 25.0 mg/kg/injection, schedule: Q01DX005 (ip), vehicle: saline with Tween-80) was 88 % of control and the T/C [14] was 90 % of control.

`CCn1c2ccccc2c2ccc(N=Cc3cccc4ccccc34)cc21` was tested, and the T/C (dose: 100.0 mg/kg/injection, schedule: Q04DX003 (ip), vehicle: saline + alcohol) was 105 % of control, the T/C (dose: 200.0 mg/kg/injection, schedule: Q04DX003 (ip), vehicle: saline + alcohol) was 97 % of control and the T/C (dose: 400.0 mg/kg/injection, schedule: Q04DX003 (ip), vehicle: saline + alcohol) was 105 % of control.

In the case of `Nc1nc(N)c2cc(Sc3ccc4ccccc4c3)ccc2n1`, the T/C [1] is reported as 119 % of control and the T/C [3] is reported as 119 % of control.

`[Se]=[Re]=[Se]` was tested, and the T/C [15] was 96 % of control, the T/C [16] was 98 % of control and the T/C [17] was 109 % of control.
